Structures can show the parent of a compound that is named as a salt.
Assays:
[1] = in vivo; conditions: both, New Zealand albino, rabbit; for AUC / Cmax / Tmax: topical or ocular
Description: In both groups, individual fluoroquinolones were dissolved at concentration of 0.1%. Thus, the total fluoroquinolones concentration in group A and group B were 0.4% and 0.5%, respectively. Sterile boric acid (1.9% w/v) in water was used as the aqueous media and the final formulations were filtered using 0.22 μ filter and autoclaved further before use.
Study protocol and experimental procedures were approved by the Institutional Animal Ethics Committee of All India Institute of Medical Sciences (AIIMS), New Delhi, India. New Zealand albino rabbits of either sex (1.5–2.0 kg) were obtained from Central Animal Facility, AIIMS. Animals were housed at standard laboratory conditions temperature-controlled room at 24 ± 2°C and humidity 55 ± 15% and given food and water ad libitum. All experiments were performed in accordance to the Association for Research in Vision and Ophthalmology (ARVO) statement for the use of animals in ophthalmic and vision research.
The sterile cocktail formulations of group A and group B were individually instilled (50 μL) on the lower fornix of rabbit eyes (n = 4) with the help of a calibrated micropipette. […] For each time point, a volume amounting to 50 μL of aqueous humor was aspirated through the corneal surface. The aqueous humor samples obtained were stored at −80°C until quantification by HPLC.
A Thermo Finnigan (Thermo Electron Corporation, USA) HPLC equipped with degasser, quaternary pump, autosampler, and PDA detector was employed for quantification of fluoroquinolones in samples. In the chromatographic quantification, analytical separation was performed using a C18 Symmetry Shield column (4.6 × 150 mm, 5 μm, Waters, USA) under a gradient flow of methanol, acetonitrile, and potassium phosphate buffer (20 mM, pH 2.5) at different ratio and time. For each spiked compound an external calibration curve was plotted and the analyte's spectra was assessed by matching them with custom made PDA spectra of inbuilt library of Chromquest version 4 (Thermo Electron Corporation, USA).
The dried concentrate was reconstituted with 100 μL mixture of water and acetonitrile (1 : 1), and 20 μL of the obtained supernatant was injected for quantification.
In Vivo Data Permeability coefficients (logPC) were obtained from controlled in vivo experiment conducted in rabbits using cassette dosing (N-in-One) approach.

[2] = Experimentally derived Δlog P by shake flask method (OECD No. 107 and 117); format: physicochemical; conditions: difference of log P(o/w) and log P(cyclohexane/water)

| SMILES | logPC (30 min) [1] | logPC (240 min) [1] | AUC [1] [ng·h/mL] | Cmax [1] [ng/mL] | Tmax [1] [h] | ΔlogP (Cyclohexane-Octanol) [2] |
| --- | --- | --- | --- | --- | --- | --- |
| C[C@H]1COc2c(N3CCN(C)CC3)c(F)cc3c(=O)c(C(=O)O)cn1c23 [Levofloxacin] |  |  |  |  | 1 | 0.734 |
| COc1c(N2C[C@@H]3CCCN[C@@H]3C2)c(F)cc2c(=O)c(C(=O)O)cn(C3CC3)c12 [Moxifloxacin] |  |  | 1040 | 594 ± 294 | 0.5 |  |
| CC1COc2c(N3CCN(C)CC3)c(F)cc3c(=O)c(C(=O)O)cn1c23 (stereo not shown) [Ofloxacin] |  |  |  |  | 1 | 0.759 |
| C[C@@H]1CN(c2c(F)c(N)c3c(=O)c(C(=O)O)cn(C4CC4)c3c2F)C[C@H](C)N1 [Sparfloxacin] | −4.753 | −6.396 | 1770 | 1150 ± 514 | 0.5 | 1.025 |

The next lines start with the values.

| logPC (30 min) [1] | logPC (240 min) [1] | AUC [1] [ng·h/mL] | Cmax [1] [ng/mL] | Tmax [1] [h] | ΔlogP (Cyclohexane-Octanol) [2] | SMILES |
| --- | --- | --- | --- | --- | --- | --- |
| −5.006 | −6.628 | 1180 | 682 ± 904 | 0.5 | 0.526 | COc1c(N2CCNC(C)C2)c(F)cc2c(=O)c(C(=O)O)cn(C3CC3)c12 (stereo not shown) [Gatifloxacin] |
| −5.519 | −6.859 | 833 | 266 ± 46 | 1 | 1.113 | CCn1cc(C(=O)O)c(=O)c2cc(F)c(N3CCNC(C)C3)c(F)c21 (stereo not shown) [Lomefloxacin HCl, Lomefloxacin] |
| −5.051 | −6.382 | 2850 | 456 ± 59 | 1 | 0.051 | CCn1cc(C(=O)O)c(=O)c2cc(F)c(N3CCNCC3)cc21 [Norfloxacin] |

Source: PMC3043298, “Development of Novel In Silico Model to Predict Corneal Permeability for Congeneric Drugs: A QSPR Approach” (Journal of Biomedicine and Biotechnology, 2011)
